Experimental data reported in patent US20220089598A1, “INHIBITORS OF HUMAN IMMUNODEFICIENCY VIRUS REPLICATION” (VIIV HEALTHCARE UK (No. 5) LIMITED, priority 2018, published 2022).
Read-outs that look alike come from different tables or passages of the source.

Legend:
Format in all cases: cell-based
uninfected MT2 cells = test: Compound cytotoxicity, XTT-based colorimetric assay; settings: day 4, XTT assay
In short: (§1)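 Run under the antiviral-assay protocol but without virus. Viability was read on day 4 and CC50 values were derived from the readout.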

[1] = test system: recombinant NL4-3 virus (Renilla luciferase) in MT-2 cells; test: HIV cell culture assay (antiviral activity, luciferase readout)
In short: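 Nef-deleted NL4-3 carrying Renilla luciferase, made by transfecting 293T cells, infects MT-2 cells for 4-5 days with serial compound dilutions present. Luciferase is read with a live-cell substrate. EC50 comes from the exponential median-effect equation Fa=1/[1+(ED50/drug conc.)m].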

[2] = Compound cytotoxicity, XTT-based colorimetric assay; settings: human; uninfected MT2 cells, day 4, XTT assay
In short: as §1

SMILES | CC50 (uninfected MT2 cells) | EC50 ([1]; MT-2 cells infected for 4-5 days with recombinant NL4-3 virus, luciferase activity, read-out: EC50) | CC50 at 4 day [2] | EC50 ([1]; Renilla, NL43)
CS(=O)(=O)Nc1nn(CC(F)F)c2c(-n3c(C(Cc4cc(F)cc(F)c4)NC(=O)Cn4nc(C(F)(F)F)c5c4C(F)(F)C4CC54)nc4nc(-c5ccccc5F)ccc4c3=O)ccc(Cl)c12 [Example 32, N—((S)-1-((3P)-3-(4-chloro-1-(2,2-difluoroethyl)-3-(methylsulfonamido)-1H-indazol-7-yl)-7-(2-fluorophenyl)-4-oxo-3,4-dihydropyrido[2,3-d]pyrimidin-2-yl)-2-(3,5-difluorophenyl)ethyl)-2-((3bS,4aR)-5,5-difluoro-3-(trifluoromethyl)-3b,4,4a,5-tetrahydro-1H-cyclopropa[3,4]cyclopenta[1,2-c]pyrazol-1-yl)acetamide] | > 500 nM | 0.077 nM |  | 
Cn1nc(NS(C)(=O)=O)c2c(Cl)ccc(-n3c([C@H](Cc4cc(F)cc(F)c4)NC(=O)Cn4nc(C(F)F)c5c4C(F)(F)[C@@H]4C[C@H]54)nc4nc(-c5ccc(F)c(CO)c5)ccc4c3=O)c21 (atropisomer, axis not shown; (P)) [Example 5, N—((S)-1-((3P)-3-(4-chloro-1-methyl-3-(methylsulfonamido)-1H-indazol-7-yl)-7-(4-fluoro-3-(hydroxymethyl)phenyl)-4-oxo-3,4-dihydropyrido[2,3-d]pyrimidin-2-yl)-2-(3,5-difluorophenyl)ethyl)-2-((3bS,4aR)-3-(difluoromethyl)-5,5-difluoro-3b,4,4a,5-tetrahydro-1H-cyclopropa[3,4]cyclopenta[1,2-c]pyrazol-1-yl)acetamide] |  |  | > 500 nM | 0.16 nM
Cn1nc(NS(C)(=O)=O)c2c(Cl)ccc(-n3c([C@H](Cc4cc(F)cc(F)c4)NC(=O)Cn4nc(C(F)F)c5c4C(F)(F)[C@@H]4C[C@H]54)nc4nc(-c5ccc(F)c(Cl)c5F)ccc4c3=O)c21 (atropisomer, axis not shown; (P)) [Example 22, N—((S)-1-((3P)-3-(4-chloro-1-methyl-3-(methylsulfonamido)-1H-indazol-7-yl)-7-(3-chloro-2,4-difluorophenyl)-4-oxo-3,4-dihydropyrido[2,3-d]pyrimidin-2-yl)-2-(3,5-difluorophenyl)ethyl)-2-((3bS,4aR)-3-(difluoromethyl)-5,5-difluoro-3b,4,4a,5-tetrahydro-1H-cyclopropa[3,4]cyclopenta[1,2-c]pyrazol-1-yl)acetamide] |  |  | > 100 nM | 0.1 nM
Cn1nc(NS(C)(=O)=O)c2c(Cl)ccc(-n3c([C@H](Cc4cc(F)cc(F)c4)NC(=O)Cn4nc(C(F)F)c5c4C(F)(F)[C@@H]4C[C@H]54)nc4nc(-c5ccc(F)c(F)c5F)ccc4c3=O)c21 (atropisomer, axis not shown; (P)) [Example 15, N—((S)-1-((3P)-3-(4-chloro-1-methyl-3-(methylsulfonamido)-1H-indazol-7-yl)-4-oxo-7-(2,3,4-trifluorophenyl)-3,4-dihydropyrido[2,3-d]pyrimidin-2-yl)-2-(3,5-difluorophenyl)ethyl)-2-((3bS,4aR)-3-(difluoromethyl)-5,5-difluoro-3b,4,4a,5-tetrahydro-1H-cyclopropa[3,4]cyclopenta[1,2-c]pyrazol-1-yl)acetamide] |  |  | > 100 nM | 0.035 nM
